Measured values taken from patent US11618894B2, “Bacteria engineered to reduce hyperphenylalaninemia” (Synlogic Operating Company, Inc., priority 2015, dated 2023).

Legend:
[1] = Kinetics of phenylalanine in the enterocirculation model; assay type: in vivo, PKU (enu2) mice; conditions: subcutaneous 0.1 mg/g phenylalanine
Description: To characterize the phenylalanine enterocirculation model, first the kinetics of serum levels of phenylalanine post phenylalanine challenger were assessed.
On day −6, PKU (enu2) mice were placed on phenylalanine-free chow and water (+)Phe (0.5 g/L)
On day 1, animals were bled to get T=0 (pre Phe challenge), and animals were randomized into two groups based on phenylalanine levels measured. The first treatment group (n=15) included mice for use for the 2, 6 and 24 hour post phenylalanine challenge time points; Group 2 (n=15) included mice for the 4 and 8 hour post phenylalanine challenge time points.
Mice were pre-weighed to obtain the average weight for each group. Phenylalanine was dosed at a concentration equal to average group weight. Animals were dosed subcutaneously with 0.1 mg/g phenylalanine. In Group 1, animals were bled at 2, 6 and 24 h post Phe challenge. In Group 2, animals were bled at 4 and 8 h post Phe challenge. Whisker plots in FIG. 38A and FIG. 38B show distribution of mouse blood phenylalanine levels (both overall phenylalanine levels (FIG. 38A) and change in phenylalanine levels from T0 (FIG. 38B). Phenylalanine levels were stably elevated over at least a 6 hour period. […]
On day −6, PKU mice were placed on phenylalanine-free chow and water (+)Phe (0.5 g/L). […] Animals were randomized into three treatment groups based on phenylalanine levels measured. […]

hippurate = assay: Kinetics of hippurate recovery in urine, gavage of live cells vs pure TCA; assay type: in vivo, mice
Excerpt: FIG. 56 depicts a graph showing hippurate recovery in urine, and comparing kinetics of the generation of hippuric acid from phenylalanine through the gavage of live cells to the generation of hippuric acid derived from pure TCA gavage.

[2] = Turnover of orally gavaged TCA into hippuric acid, recovery in urine; assay type: in vivo, Pah ENU2/2 mice
Description: To determine whether hippuric acid detection in the urine is suitable as a measure for in vivo cell activity and a potential biomarker, the extent of turnover of TCA into hippuric acid was assessed by oral gavage of various concentrations of TCA in PKU mice and subsequent measurement of TCA and hippuric acid by LC/MS.
Various TCA concentrations were administered by oral gavage.
Urine and feces were transferred to appropriate tubes and store samples on ice until processed for MS analysis.
Next, the kinetics of conversion of TCA to hippuric acid was assessed in a time course post pure TCA oral gavage. […] TCA concentrations were administered by oral gavage. […] Urine was transferred to appropriate tubes and store samples on ice until processed for MS analysis.

[3] = Oral gavage of TCA in PKU mice, recovery of TCA and hippuric acid in urine, feces and blood
[4] = oral gavage 0.0125, 0.025, 0.05 or 0.1 mg/g TCA, 4 hours after gavage

| period over which blood phenylalanine levels were stably elevated [1] [h] | SMILES | time of rapid decrease in hippurate recovery in urine post collection start (hippurate) [min] | recovery of TCA in the form of hippurate in the urine [2, 4] | TCA and hippurate detected in blood and feces ([2]; oral gavage of TCA, 4 h, data not shown) | recovery of TCA in the form of hippurate in urine [3, 4] | TCA and hippurate in blood and feces ([3]; oral gavage 0.0125-0.1 mg/g TCA, 4 hours post gavage) |
| --- | --- | --- | --- | --- | --- | --- |
| ≥ 6 | N[C@@H](Cc1ccccc1)C(=O)O [Phenylalanine, phenylalanine] | – | – | – | – | – |
| – | O=C(O)/C=C/c1ccccc1 [TCA, Trans-cinnamic acid] | ≤ 15 | nearly full recovery | Insignificant amounts | nearly full recovery | Insignificant amounts |
